ChEMBL document CHEMBL6182835, “Distinctive roles of aquaporins and novel therapeutic opportunities against cancer” (RSC Med Chem, 2025)

Experiments:
Aquaporin-1 = target: T1, Aquaporin-1 (Homo sapiens, UniProt P29972); assay: Binding affinity to AQP1 (unknown origin) expressed in HEK cells assessed as dissociation constant; assay type: cell-based
T1 sequence (P29972 whole entry): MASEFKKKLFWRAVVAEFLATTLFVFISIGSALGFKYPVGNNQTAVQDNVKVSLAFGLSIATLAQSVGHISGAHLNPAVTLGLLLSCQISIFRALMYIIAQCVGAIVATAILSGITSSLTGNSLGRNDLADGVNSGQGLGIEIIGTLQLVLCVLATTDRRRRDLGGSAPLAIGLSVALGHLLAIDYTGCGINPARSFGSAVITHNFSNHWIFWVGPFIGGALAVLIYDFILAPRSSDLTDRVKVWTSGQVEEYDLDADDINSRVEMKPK

[1] = target: T2, Aquaporin-9 (Homo sapiens) (UniProt O43315); assay: Inhibition of AQP9 (unknown origin) expressed in xenopus laevis oocytes at 100 uM relative to control; assay type: cell-based; settings: Oocyte
T2 sequence (whole entry): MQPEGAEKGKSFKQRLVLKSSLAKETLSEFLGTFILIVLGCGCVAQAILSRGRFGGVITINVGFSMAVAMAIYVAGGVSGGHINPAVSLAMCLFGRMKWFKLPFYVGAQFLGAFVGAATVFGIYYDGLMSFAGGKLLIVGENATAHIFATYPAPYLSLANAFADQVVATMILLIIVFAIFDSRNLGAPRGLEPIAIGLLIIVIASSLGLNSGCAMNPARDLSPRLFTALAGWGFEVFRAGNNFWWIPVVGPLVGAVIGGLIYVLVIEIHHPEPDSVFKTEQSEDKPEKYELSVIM

[2] = Permeability of compound; assay type: ADME; settings: not told; read-out: permeability
Aquaporin-3 [3] = target: T3, Aquaporin-3 (Homo sapiens, UniProt Q92482); assay: Inhibition of AQP3 (unknown origin)
T3 sequence (Q92482 whole entry): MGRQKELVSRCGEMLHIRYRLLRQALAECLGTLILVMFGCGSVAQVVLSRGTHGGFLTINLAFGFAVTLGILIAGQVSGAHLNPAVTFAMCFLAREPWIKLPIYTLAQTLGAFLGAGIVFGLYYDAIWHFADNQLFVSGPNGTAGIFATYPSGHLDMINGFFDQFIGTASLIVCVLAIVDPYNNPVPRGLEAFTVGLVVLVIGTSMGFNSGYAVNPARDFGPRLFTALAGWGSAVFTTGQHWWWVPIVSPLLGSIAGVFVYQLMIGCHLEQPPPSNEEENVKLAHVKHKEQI

Aquaporin-3 [4] = target: T3, Aquaporin-3; assay: Inhibition of AQP3 channel in human erythrocyte assessed as inhibition of glycerol permeability; assay type: cell-based
Aquaporin-3 [5] = target: T3, Aquaporin-3; assay: Inhibition of human AQP3 expressed in CHO cells; assay type: cell-based
Aquaporin-4 [6] = target: T4, Aquaporin-4 (Homo sapiens, UniProt P55087); assay: Inhibition of AQP4-M23 (unknown origin) relative to control; settings: concentration not given here
[7] = target: T5, Aquaporin-1 (Homo sapiens) (UniProt P29972); assay: Inhibition of AQP1 (unknown origin) at 20 uM relative to control
T5 sequence (whole entry): T1 sequence (P29972 whole entry)

Aquaporin-4 [8] = target: T4, Aquaporin-4; assay: Inhibition of AQP4-M23 (unknown origin)
Aquaporin-9 = target: T6, Aquaporin-9 (Mus musculus, UniProt Q9JJJ3); assay: Inhibition of mouse AQP9
T6 sequence (Q9JJJ3 whole entry): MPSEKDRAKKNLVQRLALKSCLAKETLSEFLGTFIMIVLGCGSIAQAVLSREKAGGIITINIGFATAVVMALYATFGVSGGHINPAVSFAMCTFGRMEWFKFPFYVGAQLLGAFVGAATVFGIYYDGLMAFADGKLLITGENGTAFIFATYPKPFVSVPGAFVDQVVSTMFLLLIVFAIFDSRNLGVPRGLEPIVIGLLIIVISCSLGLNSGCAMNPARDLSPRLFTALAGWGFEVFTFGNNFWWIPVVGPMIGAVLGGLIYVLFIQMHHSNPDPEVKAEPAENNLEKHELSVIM

Aquaporin-3 [9] = target: T7, Aquaporin-3 (Mus musculus, UniProt Q8R2N1); assay: Inhibition of mouse AQP3
T7 sequence (Q8R2N1 whole entry): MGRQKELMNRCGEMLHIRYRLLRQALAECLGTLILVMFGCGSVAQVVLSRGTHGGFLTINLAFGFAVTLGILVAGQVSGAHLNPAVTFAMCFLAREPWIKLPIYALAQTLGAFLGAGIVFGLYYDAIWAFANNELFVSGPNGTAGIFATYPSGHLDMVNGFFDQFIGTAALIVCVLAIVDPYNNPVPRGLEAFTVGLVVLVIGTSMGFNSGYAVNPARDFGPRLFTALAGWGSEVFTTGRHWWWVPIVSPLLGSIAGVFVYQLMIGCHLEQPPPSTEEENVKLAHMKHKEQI

T4 sequence (P55087 whole entry): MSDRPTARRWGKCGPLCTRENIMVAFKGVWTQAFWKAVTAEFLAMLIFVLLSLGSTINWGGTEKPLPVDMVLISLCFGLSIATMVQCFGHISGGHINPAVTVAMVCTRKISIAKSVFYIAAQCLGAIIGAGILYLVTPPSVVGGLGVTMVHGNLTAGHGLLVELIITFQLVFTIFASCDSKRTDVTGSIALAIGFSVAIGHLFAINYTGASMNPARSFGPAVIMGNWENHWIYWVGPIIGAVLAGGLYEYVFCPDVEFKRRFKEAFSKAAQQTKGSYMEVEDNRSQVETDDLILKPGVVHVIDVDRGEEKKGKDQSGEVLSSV

## CC(=O)Nc1nnc(S(N)(=O)=O)s1 [ACETAZOLAMIDE]
Aquaporin-1
  Kd: 174000 nM

## O=C(CCc1ccc(O)cc1)c1c(O)cc(O)cc1O [PHLORETIN]
[1]
  inhibition: 86%
[2]
  Papp: ~2.8 ×10⁻⁶ cm/s

## Cc1ccc(CC2(OCCN(C)C)CCC(C(C)(C)C)CC2)cc1 (stereo not drawn)
Aquaporin-3 [3]
  IC50: 27000 nM

## O=C(Nc1csc([N+](=O)[O-])c1)Nc1c(Cl)cccc1Cl
Aquaporin-3 [4]
  IC50: ~200 nM
Aquaporin-3 [5]
  IC50: ~100 nM

## O=C(Nc1nncs1)c1cccnc1
Aquaporin-4 [6]
  inhibition: 73%
[7]
  inhibition: 56%
Aquaporin-4 [8]
  IC50: 3000 nM

## CCOC(=O)c1ccc(NC(=O)NCc2ccc(-n3cccn3)cc2)cc1
Aquaporin-3 [4]
  IC50: ~600 nM
Aquaporin-9
  IC50: 1100 nM
Aquaporin-3 [5]
  IC50: 200 nM
Aquaporin-3 [9]
  IC50: 700 nM
